Reference: article PMC8072719, “Synthesis and Antiproliferative Activity of Triazoles Based on 2-Azabicycloalkanes” (Materials, 2021)
Where two headings read alike, the source gives them in different places.

Columns and labels:
[1] = system: NCI-H1581; test: Growth inhibition assay (SRB assay), lung tumor cell line NCI-H1581; assay type: cell-based, human; details: for IC50: 72 h, SRB, mean ± SD
Experimental: (§1) Three human cancer cell lines were used to evaluate the antiproliferative activity of the obtained compounds: melanoma cell line Hs294T, pancreatic tumor cell line MIA PaCa-2, and lung tumor cell line NCI-H1581. The normal mouse fibroblasts cell line (BALB/3T3 clone A31) was selected as reference. All these lines were purchased from the ATCC (American Type Culture Collection, Rockville, MD, USA). NCI-H1581 cells were grown in RPMI 1640 with GlutaMax medium (Gibco, Thermo Fisher Scientific, Leicestershire, UK) with 5% fetal bovine serum (FBS; HyClone, GE Healthcare, Logan, UT, USA). Hs294T and BALB/3T3 cells were grown in Dulbecco’s Modified Eagle Medium (DMEM; Gibco, Thermo Fisher Scientific, Leicestershire, UK) supplemented with 2 mM L-glutamine and 10% FBS (HyClone, GE Healthcare, Logan, UT, USA). MIA PaCa-2 cells were grown in DMEM (Gibco, Thermo Fisher Scientific, Leicestershire, UK) supplemented with 2 mM L-glutamine, 2.5% Horse Serum (Gibco, Thermo Fisher Scientific, Leicestershire, UK), and 10% FBS (HyClone, GE Healthcare, Logan, UT, USA). All culture media were supplemented with antibiotics: 100 U/mL penicillin (Polfa Tarchomin SA, Warsaw, Poland) and 100 µg/mL streptomycin (Sigma-Aldrich Chemie GmbH, Steinheim, Germany); cells were grown at 37 °C in a humid atmosphere with 5% CO2.
(§2) Twenty-four hours prior to the addition of the tested compounds, 2000 cells per well of Balb/3T3, MIA PaCa-2, and Hs294T cell lines and 2500 cells of NCI-H1581 cell line were seeded in 384-well plates (Greiner Bio-One, Kremsmünster, Austria) in an appropriate medium. The studied compounds were added to the cells at 8 different concentrations in a series of dilutions from 100 to 0.00001 µg/mL for 72 h. Cisplatin was applied as a reference compound (Teva Pharmaceuticals, Warsaw, Poland). DMSO (Sigma-Aldrich Chemie GmbH, Steinheim, Germany) was used as solvent control. The DMSO concentrations corresponded to the solvent concentrations in the tested compound solutions. Then, 30 µL per well of ice-cold 50% TCA (trichloroacetic acid, Avantor, Gliwice, Poland) was added to the cells. After one hour of incubation at room temperature (RT) cells were washed five times with water and stained with 0.4% SRB (sulforhodamine B, Sigma-Aldrich Chemie GmbH, Steinheim, Germany). Twenty-five microliters per well of 0.4% solution of SRB in 1% acetic acid (Avantor, Gliwice, Poland) was applied. After 0.5 h of incubation at RT, the unbound dye was washed out with 1% acetic acid. The bound dye in each well was dissolved in 70 µl of 10 mM TRIS (Tris base, Sigma-Aldrich, Chemie GmbH, Steinheim, Germany). A microplate reader (BioTek Synergy H4, Swindon, UK) with Gen5 software was used to read the absorbance at 540 nm. The results are presented as mean IC50 values (concentration of the compound that inhibits cell proliferation by 50%) ± standard deviation. Half-maximal inhibitory concentration (IC50) values were calculated using the Prolab-3 system based on Cheburator 0.4 [22]. Each experiment was performed in triplicate, and three independent repetitions were made for each experiment. Raw data and IC50 values were placed in the supplementary materials.

[2] = system: BALB/3T3 clone A31; test: Growth inhibition assay (SRB assay), normal fibroblasts BALB/3T3 clone A31; assay type: cell-based, mouse; details: Mus musculus, BALB/3T3 clone A31, 72 h, mean ± SD
Experimental: as §1, §2

[3] = system: MIA PaCa-2; test: Growth inhibition assay (SRB assay), pancreatic tumor cell line MIA PaCa-2; assay type: cell-based, human; details: Homo sapiens, mean ± SD
Experimental: as §1, §2

[4] = system: Hs294T; test: Growth inhibition assay (SRB assay), melanoma cell line Hs294T; assay type: cell-based, human; details: Homo sapiens, Hs 294T, 72 h, mean ± SD
Experimental: as §1, §2

[5] = Solvability in DMSO (table footnote); assay type: physicochemical; set-up: key to solvability in dimethyl sulfoxide (DMSO): **: poor or no solvability in dimethyl sulfoxide (DMSO); key to solvability in DMSO: [b]: poor or no solvability in DMSO
[6] = Homo sapiens, NCI-H1581, 72 h, read-out: IC50 NCI-H1581
[7] = Homo sapiens, NCI-H1581, 72 h, supplement, read-out: IC50 NCI-H1581 (raw data)
[8] = normal cell line, read-out: IC50 BALB3T3
[9] = supplement, read-out: IC50 BALB3T3 (raw data)
[10] = MIA PaCa-2, 72 h, read-out: IC50 MIA PaCa-2
[11] = MIA PaCa-2, supplement, 72 h, read-out: IC50 MIA PaCa-2 (raw data)
[12] = supplement, read-out: IC50 Hs294T (raw data)

| IC50 [1, 6] | IC50 ([1]; Homo sapiens, NCI-H1581, 72 h, supplement, read-out: IC50 NCI-H1581 (non-rounded data)) | IC50 [1, 7] | IC50 [3, 10] | IC50 ([3]; MIA PaCa-2, supplement, 72 h, read-out: IC50 MIA PaCa-2 (non-rounded data)) | IC50 [3, 11] | IC50 ([4]; read-out: IC50 Hs294T) | IC50 ([4]; supplement, read-out: IC50 Hs294T (non-rounded data)) | IC50 [4, 12] | IC50 ([1]; read-out: IC50 NCI-H1581) | solvability in dimethyl sulfoxide (DMSO) [5] | solvability in DMSO ([5]; supplement) | Compound | IC50 [2, 8] | IC50 ([2]; supplement, read-out: IC50 BALB3T3 (non-rounded data)) | IC50 [2, 9] | SI (Selectivity Index) ([1]; SI = IC50 for normal cell line BALB/3T3 / IC50 for NCI-H1581) |
| --- | --- | --- | --- | --- | --- | --- | --- | --- | --- | --- | --- | --- | --- | --- | --- | --- |
| > 100 µM | > 100 µM | > 100 µM | > 100 µM | > 100 µM | > 100 µM | > 100 µM | > 100 µM | > 100 µM | – | – | – | C[C@@H](c1ccccc1)N1C[C@H](n2cc(-c3cccc(-c4cn([C@H]5CN([C@@H](C)c6ccccc6)[C@H]6CC[C@@H]5C6)nn4)c3)nn2)[C@@H]2CC[C@H]1C2 [Compound 17, 1,3-Bis-(1-((1S,4R,5R)-2-((S)-1-phenylethyl)-2-azabicyclo[3.2.1]octan-4-yl)-1H-1,2,3-triazol-4-yl) benzene] | > 100 µM | > 100 µM | > 100 µM | – |
| 2.4 µM | – | 2.2 ± 0.06 µg/mL | 25.7 ± 0.26 µM | – | 23.11 ± 0.23 µg/mL | 20.8 ± 5.02 µM | – | 18.8 ± 4.52 µg/mL | 2.44 ± 0.07 µM | – | – | C[C@@H](c1ccccc1)N1C[C@@H](n2cc(CN(Cc3cn([C@@H]4CN([C@@H](C)c5ccccc5)[C@H]5CC[C@@H]4C5)nn3)Cc3cn([C@@H]4CN([C@@H](C)c5ccccc5)[C@H]5CC[C@@H]4C5)nn3)nn2)[C@@H]2CC[C@H]1C2 [Compound 18, N,N,N-tri((1-((1S,4S,5R)-2-((S)-1-phenylethyl)-2-azabicyclo[3.2.1]octan-4-yl)-1H-1,2,3-triazol-4-yl)methyl) amine] | 23.1 ± 2.72 µM | – | 20.8 ± 2.45 µg/mL | – |
| 3.27 ± 0.42 µM | – | 2.94 ± 0.38 µg/mL | 31.8 ± 2.31 µM | – | 28.7 ± 2.08 µg/mL | 29.1 ± 1.36 µM | – | 26.2 ± 1.22 µg/mL | – | – | – | C[C@@H](c1ccccc1)N1C[C@H](n2cc(CN(Cc3cn([C@H]4CN([C@@H](C)c5ccccc5)[C@H]5CC[C@@H]4C5)nn3)Cc3cn([C@H]4CN([C@@H](C)c5ccccc5)[C@H]5CC[C@@H]4C5)nn3)nn2)[C@@H]2CC[C@H]1C2 [Compound 19, N,N,N-tris((1-((1S,4R,5R)-2-((S)-1-phenylethyl)-2-azabicyclo[3.2.1]octan-4-yl)-1H-1,2,3-triazol-4-yl)methyl) amine] | 27.7 ± 3.24 µM | – | 24.9 ± 2.92 µg/mL | – |
| 6.3 µM | – | 3.01 ± 0.66 µg/mL | 63 ± 7.29 µM | – | 30.4 ± 3.51 µg/mL | 57 ± 13.6 µM | – | 27.5 ± 6.57 µg/mL | 6.25 ± 1.37 µM | – | – | CC(c1ccccc1)N1CC(n2cc(C3C4CCC(C4)N3C(C)c3ccccc3)nn2)C2CCC1C2 (centres unmarked) [Compound 20] | 39.4 ± 4.86 µM | – | 19 ± 2.34 µg/mL | 6 |
| 77.6 µM | – | 35 ± 3.92 µg/mL | 90.28 ± 0.69 µM | – | 40.77 ± 0.31 µg/mL | 92.6 ± 22 µM | – | 41.8 ± 9.92 µg/mL | 77.6 ± 8.68 µM | 21 ** | [b] | CC(c1ccccc1)N1C2CCC(C2)C1c1cn(CC2CCCN2C(=O)OC(C)(C)C)nn1 (centres unmarked) [Compound 21] | > 100 µM | – | 48.8 ± 10.1 µg/mL | – |
